The values that follow come from patent publication US9260439B2, “Dihydropyrrolopyrimidine derivatives” (PFIZER INC., priority 2014, dated 2016).

This assay concerns the target truncated PI3Kα (p110α/iSH2 p85α) (Homo sapiens (Human), UniProt P42336). The assay is described as follows: PI3KA_Act fluorescence polarization kinase assay (Ki). The assay is classed as biochemical. Conditions: 1 mM ATP. The method, boiled down:
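Ki values result from fitting fluorescence polarization signals to the Morrison equation for tight-binding competitive inhibitors. The detector was GST-Grp1 PH domain with TAMRA-PIP3, read after a 30 min room-temperature reaction of 0.5 nM truncated PI3Kα and 30 μM PIP2 at pH 7.4 in HEPES/NaCl/MgCl2/DTT/CHAPS buffer. Compounds were tested as 12-point 3-fold dilutions from 3 μM.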
For orientation: Polarisation of emitted light reports the rotation of a fluorescent probe.

Sequence of truncated PI3Kα (p110α/iSH2 p85α) (P42336 whole entry, the tested form may be a part): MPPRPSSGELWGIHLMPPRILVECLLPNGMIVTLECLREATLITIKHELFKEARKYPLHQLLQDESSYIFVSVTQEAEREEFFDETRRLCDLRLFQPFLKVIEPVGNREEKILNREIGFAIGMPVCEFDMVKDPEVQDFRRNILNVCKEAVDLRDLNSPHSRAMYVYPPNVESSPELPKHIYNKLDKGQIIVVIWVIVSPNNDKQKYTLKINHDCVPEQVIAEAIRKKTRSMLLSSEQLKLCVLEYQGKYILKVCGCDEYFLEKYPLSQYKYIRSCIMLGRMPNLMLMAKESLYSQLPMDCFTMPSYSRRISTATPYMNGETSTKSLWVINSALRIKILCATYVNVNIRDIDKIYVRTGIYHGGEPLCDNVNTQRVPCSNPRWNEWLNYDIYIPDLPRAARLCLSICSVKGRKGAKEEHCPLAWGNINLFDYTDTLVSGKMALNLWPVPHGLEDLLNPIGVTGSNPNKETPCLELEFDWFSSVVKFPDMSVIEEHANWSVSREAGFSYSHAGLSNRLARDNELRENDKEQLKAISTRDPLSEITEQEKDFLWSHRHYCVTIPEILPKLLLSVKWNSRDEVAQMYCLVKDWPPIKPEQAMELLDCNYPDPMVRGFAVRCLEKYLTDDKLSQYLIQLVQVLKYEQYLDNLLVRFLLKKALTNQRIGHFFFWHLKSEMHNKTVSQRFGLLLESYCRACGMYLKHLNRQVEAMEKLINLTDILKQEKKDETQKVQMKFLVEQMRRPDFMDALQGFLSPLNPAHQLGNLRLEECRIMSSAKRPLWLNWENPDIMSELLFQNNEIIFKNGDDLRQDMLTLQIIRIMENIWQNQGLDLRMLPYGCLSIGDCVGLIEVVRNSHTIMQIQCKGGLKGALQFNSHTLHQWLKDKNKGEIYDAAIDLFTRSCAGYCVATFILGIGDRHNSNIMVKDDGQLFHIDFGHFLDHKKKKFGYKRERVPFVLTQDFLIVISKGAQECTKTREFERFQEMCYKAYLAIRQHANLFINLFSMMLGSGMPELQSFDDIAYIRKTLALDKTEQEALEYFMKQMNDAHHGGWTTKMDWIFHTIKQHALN

With `CC(C)[C@@H](N)C(=O)N1CC[C@H](N2CCc3c(-c4cnc(N)nc4)nc(N4CCOCC4)nc32)C1.Cl` [Example 287, (2R)-2-amino-1-{(3S)-3-[4-(2-aminopyrimidin-5-yl)-2-(morpholin-4-yl)-5,6-dihydro-7H-pyrrolo[2,3-d]pyrimidin-7-yl]pyrrolidin-1-yl}-3-methylbutan-1-one hydrochloride], the “PI3KA_Act Ki” value is on record as 0.462 nM.

As for `CC(C)[C@H](N)C(=O)N1CC[C@](C)(N2CCc3c(-c4cnc(N)nc4)nc(N4CCOCC4)nc32)C1.Cl` [Example 288, (2S)-2-amino-1-{(3S)-3-[4-(2-aminopyrimidin-5-yl)-2-(morpholin-4-yl)-5,6-dihydro-7H-pyrrolo[2,3-d]pyrimidin-7-yl]-3-methylpyrrolidin-1-yl}-3-methylbutan-1-one hydrochloride], the “PI3KA_Act Ki” value is on record as 0.141 nM.

Turning to `CC(C)(N)C(=O)N1CC[C@@](C)(N2CCc3c(-c4cnc(N)nc4)nc(N4CCOCC4)nc32)C1.Cl` [Example 289, 2-amino-1-{(3R)-3-[4-(2-aminopyrimidin-5-yl)-2-(morpholin-4-yl)-5,6-dihydro-7H-pyrrolo[2,3-d]pyrimidin-7-yl]-3-methylpyrrolidin-1-yl}-2-methylpropan-1-one hydrochloride], the “PI3KA_Act Ki” value was found to be 0.075 nM.

`CCC(C)(N)C(=O)N1CC[C@](C)(N2CCc3c(-c4cnc(N)nc4)nc(N4CCOCC4)nc32)C1.Cl` (stereo partly drawn) [Example 290, 2-amino-1-{(3S)-3-[4-(2-aminopyrimidin-5-yl)-2-(morpholin-4-yl)-5,6-dihydro-7H-pyrrolo[2,3-d]pyrimidin-7-yl]-3-methylpyrrolidin-1-yl}-2-methylbutan-1-one hydrochloride]: the “PI3KA_Act Ki” value was under 0.018 nM.

As to `C[C@]1(N2CCc3c(-c4cnc(N)nc4)nc(N4CCOCC4)nc32)CCN(C(=O)[C@H](N)CF)C1.Cl` [Example 292, (2S)-2-amino-1-{(3S)-3-[4-(2-aminopyrimidin-5-yl)-2-(morpholin-4-yl)-5,6-dihydro-7H-pyrrolo[2,3-d]pyrimidin-7-yl]-3-methylpyrrolidin-1-yl}-3-fluoropropan-1-one hydrochloride], the “PI3KA_Act Ki” value was under 0.018 nM.

Take `C[C@]1(N2CCc3c(-c4cnc(N)nc4)nc(N4CCOCC4)nc32)CCN(C(=O)[C@@H](N)CF)C1.Cl` [Example 293, (2R)-2-amino-1-{(3S)-3-[4-(2-aminopyrimidin-5-yl)-2-(morpholin-4-yl)-5,6-dihydro-7H-pyrrolo[2,3-d]pyrimidin-7-yl]-3-methylpyrrolidin-1-yl}-3-fluoropropan-1-one hydrochloride]: the “PI3KA_Act Ki” value worked out at 0.086 nM.

In the case of `CC(N)(CF)C(=O)N1CC[C@](C)(N2CCc3c(-c4cnc(N)nc4)nc(N4CCOCC4)nc32)C1.Cl` (stereo partly drawn) [Example 294, 2-amino-1-{(3S)-3-[4-(2-aminopyrimidin-5-yl)-2-(morpholin-4-yl)-5,6-dihydro-7H-pyrrolo[2,3-d]pyrimidin-7-yl]-3-methylpyrrolidin-1-yl}-3-fluoro-2-methylpropan-1-one hydrochloride], the “PI3KA_Act Ki” value is under 0.018 nM.

As for `C[C@]1(N2CCc3c(-c4cnc(N)nc4)nc(N4CCOCC4)nc32)CCN(C(=O)[C@@H](N)C2CC2)C1.Cl` [Example 296, (2S)-2-amino-1-{(3S)-3-[4-(2-aminopyrimidin-5-yl)-2-(morpholin-4-yl)-5,6-dihydro-7H-pyrrolo[2,3-d]pyrimidin-7-yl]-3-methylpyrrolidin-1-yl}-2-cyclopropylethanone hydrochloride], the “PI3KA_Act Ki” value is reported as under 0.018 nM.

Turning to `C[C@]1(N2CCc3c(-c4cnc(N)nc4)nc(N4CCOCC4)nc32)CCN(C(=O)[C@H](N)C2CC2)C1.Cl` [Example 297, (2R)-2-amino-1-{(3S)-3-[4-(2-aminopyrimidin-5-yl)-2-(morpholin-4-yl)-5,6-dihydro-7H-pyrrolo[2,3-d]pyrimidin-7-yl]-3-methylpyrrolidin-1-yl}-2-cyclopropylethanone hydrochloride], the “PI3KA_Act Ki” value stood at 0.019 nM.

`CNCC(=O)N1CC[C@](C)(N2CCc3c(-c4cnc(N)nc4)nc(N4CCOCC4)nc32)C1` [Example 298, 1-{(3S)-3-[4-(2-aminopyrimidin-5-yl)-2-(morpholin-4-yl)-5,6-dihydro-7H-pyrrolo[2,3-d]pyrimidin-7-yl]-3-methylpyrrolidin-1-yl}-2-(methylamino)ethanone]: the “PI3KA_Act Ki” value is listed as under 0.018 nM.

For `CN(C)CC(=O)N1CC[C@](C)(N2CCc3c(-c4cnc(N)nc4)nc(N4CCOCC4)nc32)C1` [Example 299, 1-{(3S)-3-[4-(2-aminopyrimidin-5-yl)-2-(morpholin-4-yl)-5,6-dihydro-7H-pyrrolo[2,3-d]pyrimidin-7-yl]-3-methylpyrrolidin-1-yl}-2-(dimethylamino) ethanone], the “PI3KA_Act Ki” value is given as under 0.018 nM.

As for `CN(C)CC(=O)N1CC[C@@](C)(N2CCc3c(-c4cnc(N)nc4)nc(N4CCOCC4)nc32)C1` [Example 300, 1-{(3R)-3-[4-(2-aminopyrimidin-5-yl)-2-(morpholin-4-yl)-5,6-dihydro-7H-pyrrolo[2,3-d]pyrimidin-7-yl]-3-methylpyrrolidin-1-yl}-2-(dimethylamino) ethanone], the “PI3KA_Act Ki” value was found to be 0.669 nM.

For the molecule `C[C@H](C(=O)N1CC[C@](C)(N2CCc3c(-c4cnc(N)nc4)nc(N4CCOCC4)nc32)C1)N(C)C` [Example 301, (2R)-1-{(3S)-3-[4-(2-aminopyrimidin-5-yl)-2-(morpholin-4-yl)-5,6-dihydro-7H-pyrrolo[2,3-d]pyrimidin-7-yl]-3-methylpyrrolidin-1-yl}-2-(dimethylamino) propan-1-one], the “PI3KA_Act Ki” value is recorded as 0.073 nM.

As for `CC(C(=O)N1CC[C@](C)(N2CCc3c(-c4cnc(N)nc4)nc(N4CCOCC4)nc32)C1)N(C)C` (stereo partly drawn) [Example 302, 1-{(3S)-3-[4-(2-aminopyrimidin-5-yl)-2-(morpholin-4-yl)-5,6-dihydro-7H-pyrrolo[2,3-d]pyrimidin-7-yl]-3-methylpyrrolidin-1-yl}-2-(dimethylamino) propan-1-one], the “PI3KA_Act Ki” value was determined as 0.038 nM.

Turning to `CNC(C)(C)C(=O)N1CC[C@](C)(N2CCc3c(-c4cnc(N)nc4)nc(N4CCOCC4)nc32)C1.Cl` [Example 303, 1-{(3S)-3-[4-(2-aminopyrimidin-5-yl)-2-(morpholin-4-yl)-5,6-dihydro-7H-pyrrolo[2,3-d]pyrimidin-7-yl]-3-methylpyrrolidin-1-yl}-2-methyl-2-(methylamino) propan-1-one hydrochloride], the “PI3KA_Act Ki” value worked out at 0.025 nM.

Take `CN(C)C(C)(C)C(=O)N1CC[C@](C)(N2CCc3c(-c4cnc(N)nc4)nc(N4CCOCC4)nc32)C1` [Example 304, 1-{(3S)-3-[4-(2-aminopyrimidin-5-yl)-2-(morpholin-4-yl)-5,6-dihydro-7H-pyrrolo[2,3-d]pyrimidin-7-yl]-3-methylpyrrolidin-1-yl}-2-(dimethylamino)-2-methylpropan-1-one]: the “PI3KA_Act Ki” value is listed as under 0.018 nM.

Take `CC(C)(CN)C(=O)N1CC[C@](C)(N2CCc3c(-c4cnc(N)nc4)nc(N4CCOCC4)nc32)C1.Cl` [Example 305, 3-amino-1-{(3S)-3-[4-(2-aminopyrimidin-5-yl)-2-(morpholin-4-yl)-5,6-dihydro-7H-pyrrolo[2,3-d]pyrimidin-7-yl]-3-methylpyrrolidin-1-yl}-2,2-dimethylpropan-1-one hydrochloride]: the “PI3KA_Act Ki” value is listed as 0.036 nM.

Regarding `CNCC(C)(C)C(=O)N1CC[C@](C)(N2CCc3c(-c4cnc(N)nc4)nc(N4CCOCC4)nc32)C1.Cl` [Example 306, 1-{(3S)-3-[4-(2-aminopyrimidin-5-yl)-2-(morpholin-4-yl)-5,6-dihydro-7H-pyrrolo[2,3-d]pyrimidin-7-yl]-3-methylpyrrolidin-1-yl}-2,2-dimethyl-3-(methylamino) propan-1-one hydrochloride], the “PI3KA_Act Ki” value was under 0.018 nM.

Take `C[C@]1(N2CCc3c(-c4cnc(N)nc4)nc(N4CCOCC4)nc32)CCN(C(=O)C(F)(F)CN)C1.Cl` [Example 307, 3-amino-1-{(3S)-3-[4-(2-aminopyrimidin-5-yl)-2-(morpholin-4-yl)-5,6-dihydro-7H-pyrrolo[2,3-d]pyrimidin-7-yl]-3-methylpyrrolidin-1-yl}-2,2-difluoropropan-1-one hydrochloride]: the “PI3KA_Act Ki” value is under 0.018 nM.

As to `C[C@@]1(N2CCc3c(-c4cnc(N)nc4)nc(N4CCOCC4)nc32)CCN(C(=O)CC(F)(F)F)C1` [Example 308, 1-{(3R)-3-[4-(2-aminopyrimidin-5-yl)-2-(morpholin-4-yl)-5,6-dihydro-7H-pyrrolo[2,3-d]pyrimidin-7-yl]-3-methylpyrrolidin-1-yl}-3,3,3-trifluoropropan-1-one], the “PI3KA_Act Ki” value worked out at 0.126 nM.

Consider `C[C@]1(N2CCc3c(-c4cnc(N)nc4)nc(N4CCOCC4)nc32)CCN(C(=O)CC(F)(F)F)C1` [Example 309, 1-{(3S)-3-[4-(2-aminopyrimidin-5-yl)-2-(morpholin-4-yl)-5,6-dihydro-7H-pyrrolo[2,3-d]pyrimidin-7-yl]-3-methylpyrrolidin-1-yl}-3,3,3-trifluoropropan-1-one], for which the “PI3KA_Act Ki” value is recorded as 0.056 nM.

Consider `CC(C)[C@@H](N)C(=O)N1CC[C@](C)(N2CCc3c(-c4cnc(N)nc4)nc(N4CCOCC4)nc32)C1.Cl` [Example 310, (2R)-2-amino-1-{(3S)-3-[4-(2-aminopyrimidin-5-yl)-2-(morpholin-4-yl)-5,6-dihydro-7H-pyrrolo[2,3-d]pyrimidin-7-yl]-3-methylpyrrolidin-1-yl}-3-methylbutan-1-one hydrochloride], for which the “PI3KA_Act Ki” value worked out at 0.022 nM.

As for `C[C@]1(N2CCc3c(-c4cnc(N)nc4)nc(N4CCOCC4)nc32)CCN(C(=O)[C@@](C)(N)C(F)(F)F)C1.Cl` [Example 311, (2R)-2-amino-1-{(3S)-3-[4-(2-aminopyrimidin-5-yl)-2-(morpholin-4-yl)-5,6-dihydro-7H-pyrrolo[2,3-d]pyrimidin-7-yl]-3-methylpyrrolidin-1-yl}-3,3,3-trifluoro-2-methylpropan-1-one hydrochloride], the “PI3KA_Act Ki” value was 0.054 nM.
